Results as given in PMC9658586, “1,4-Naphthoquinone Motif in the Synthesis of New Thiopyrano[2,3-d]thiazoles as Potential Biologically Active Compounds” (Molecules, 2022).
Read-outs that look alike come from different tables or passages of the source.

Assays:
Jurkat cells = assay: DNA laddering (DNA extraction and gel electrophoresis); format: cell-based, human
Protocol: DNA extraction and gel electrophoresis were performed as described by Herrmann and others. Jurkat cells were collected by centrifugation; lysed in a lysis buffer (1% NP-40 in 20 mM EDTA, 50 mM Tris-HCl, pH 7.5; 10 µL per 10 6 cells, minimum 50 µL). After centrifugation for 5 min at 1600× g, the supernatant was collected and the extraction was repeated with the same amount of lysis buffer. Supernatants were brought to 1% SDS and treated for 2 h with RNase A (final concentration 5 µg/mL) at 56 °C. Then, proteinase K was added (final concentration 2.5, µg/mL) and incubated for 2 h at 37 °C. After adding 1/2 volume of 10 M ammonium acetate, the DNA was precipitated with 2.5 vol. Ethanol, dissolved in gel loading buffer, and separated by electrophoresis in 1% agarose gels containing Ethidium bromide (at 70 V).

[1] = system: human epidermoid cervix carcinoma KB3-1 cells; assay: MTT cell viability assay, KB3-1; format: cell-based; conditions: Homo sapiens, KB 3-1, 72 h
Protocol: (§1) The MTT cell viability assay was performed 72 h after cells treatment with various concentrations of studied compounds and doxorubicin, a reference drug. […] It is known that ABCB1 (P-glycoprotein), MRP1/ABCC1 (multidrug resistance protein 1), and BCRP/BCG2 (breast cancer resistance protein) have been reported to be key players in resistance to chemotherapy. […] The p53 has diverse mutations in almost all human tumors, stimulating their hyper-proliferation, invasion/metastasis, and thus, influencing the potency of various chemotherapeutics (i.e., platins and anti-metabolites).
(§2) Human colon carcinoma HCT116 cells, human breast adenocarcinoma cells of MCF-7 line, human T-leukemia Jurkat cells, human chronic myelogenous leukemia K562 cells, and human keratinocytes of HaCaT line were from the Cell Collection of R.E. Kavetsky Institute of Experimental Pathology, Oncology and Radiobiology (Kyiv, Ukraine). Murine macrophages of J774.2 line were a generous gift from Professor Sir John Vane (William Harvey Research Institute, London, UK) via Professor Janusz Marcinkiewicz (Jagiellonian University Medical College, Krakow, Poland). Human colon carcinoma HCT116 p53-/- cells with knockdown of P53 gene, as well as human epidermoid cervix carcinoma KB3-1 cells and its ABCB1-overexpressing subline KBC-1, were kindly provided by Professor W. Berger (Institute of Cancer Research, Medical University of Vienna, Austria). […] Human leukemia monocytic THP-1 cells were kindly provided by Professor M. Herrmann (Department of Internal Medicine, Institute for Clinical Immunology and Rheumatology, University of Erlangen-Nuremberg, Germany). Cells were cultured in DMEM or RPMI-1640 medium supplemented with 10% fetal bovine serum (all were purchased from Biowest, Nuaille, France) at 37 °C in a humidified atmosphere containing 5% CO2.
(§3) MTT assay was used to examine the viability of tumor and pseudo-normal cells after their treatment with studied thiopyrano[2,3-d]thiazole derivatives and doxorubicin (Actavis S.R.L., Bucharest, Romania). Cells were seeded in 96-well plates at a density of 3–5 × 103. After 24 h, cells were treated with compound […], 1,4-NQ (0.1–100 µM), and doxorubicin (0.1–100 µM). After incubation for 72 h, MTT reagent (Sigma-Aldrich, St. Louis, MO, USA) was added to each well, according to the Sigma-Aldrich protocol. An absorbance Reader BioTek ELx800 (BioTek Instruments, Inc., Winooski, VT, USA) was used to measure the reaction product.

[2] = system: Murine macrophages of J774.2 line; assay: MTT cell viability assay, J774.2; format: cell-based; conditions: pseudo-normal murine macrophages
Protocol: as §1, §2, §3

[3] = system: Human colon carcinoma HCT116 cells (HCT116wt); assay: MTT cell viability assay, HCT116wt; format: cell-based; conditions: Homo sapiens, HCT-116, 72 h
Protocol: as §1, §2, §3

[4] = system: Human leukemia monocytic THP-1 cells; assay: MTT cell viability assay, THP-1; format: cell-based; conditions: 72 h
Protocol: as §1
Human colon carcinoma HCT116 cells, human breast adenocarcinoma cells of MCF-7 line, human T-leukemia Jurkat cells, human chronic myelogenous leukemia K562 cells, and human keratinocytes of HaCaT line were from the Cell Collection of R.E. Kavetsky Institute of Experimental Pathology, Oncology and Radiobiology (Kyiv, Ukraine). […]
MTT assay was used to examine the viability of tumor and pseudo-normal cells after their treatment with studied thiopyrano[2,3-d]thiazole derivatives and doxorubicin (Actavis S.R.L., Bucharest, Romania). […] An absorbance Reader BioTek ELx800 (BioTek Instruments, Inc., Winooski, VT, USA) was used to measure the reaction product.

[5] = system: panel of sixty cancer cell lines; assay: NCI single-dose (10 μM) anticancer screen, sulforhodamine B, 60-cell-line panel; format: cell-based, human; conditions: 48 h; for Mean Growth, %: growth percent vs untreated control, 60 cell lines; for Range of Growth, %: range over 60 cell lines
Protocol: Considering the results of previous studies of fused thiazolidinones and their analogs, a series of thiopyrano[2,3-d]thiazoles with naphthoquinone fragments in the structure were studied for their anticancer activity. Thus, synthesized thiopyranothiazole derivatives 3.5 and 3.6 were selected by the National Cancer Institute (NCI), U.S., for their anticancer activity at 10 μM concentration toward a panel of sixty cancer cell lines representing nine different types (leukemia, melanoma, lung, colon, CNS, ovarian, renal, prostate, and breast cancers) (Figures S13–S14). Selection for screening based on new derivatives’ ability to add diversity to the NCI small molecules collection and anticancer assays were performed according to the NCI guidelines and protocols previously described. The compounds were added at the mentioned concentration, and the cell cultures were incubated for 48 h. The results for each compound were reported as the growth percent (GP%) of treated cells compared with untreated control cells.
Anticancer in vitro assay was performed on the human tumor cell lines panel derived from nine neoplastic diseases by the protocol of the Drug Evaluation Branch, National Cancer Institute, Bethesda, MD, USA [44, 45, 46]. Tested compounds were added to the culture at a single concentration (10^−5 M), and the cultures were incubated for 48 h. Endpoint determinations were made with a protein binding dye, sulforhodamine B. Results for each tested compound were reported as the GP% of the treated cells compared to untreated control cells. GP% was spectrophotometrically evaluated vs. controls not treated with test agents.

[6] = system: isolated normal human peripheral blood lymphocytes; assay: MTT cell viability assay, isolated lymphocytes; format: cell-based; conditions: 72 h, MTT, normal human peripheral blood lymphocytes, read-out: IC50, Isolated lymphocytes
Protocol: We continued the cytotoxicity study of synthesized derivatives 3.1–3.6 toward tumor and pseudo-normal cells in vitro. The MTT cell viability assay was performed 72 h after cells treatment with various concentrations of studied compounds and doxorubicin, a reference drug. […] The THP-1 cells, monocytes isolated from peripheral blood from an acute monocytic leukemia patient, were also sensitive to the 3.6 treatment. […] The 3.6 inhibited the viability of epidermoid carcinoma (KB3-1 and its ABCB1-overexpressing subline KBC-1) and colon carcinoma (HCT116wt and its p53 knockdown subline HCT116 p53-/-) cells. It is known that ABCB1 (P-glycoprotein), MRP1/ABCC1 (multidrug resistance protein 1), and BCRP/BCG2 (breast cancer resistance protein) have been reported to be key players in resistance to chemotherapy. […] Thus, the p53 status of colon carcinoma cells influenced the anti-tumor effects of the studied 3,5,10,11-tetrahydro-2H-benzo[6,7]thiochromeno[2,3-d][1, 3]thiazole-2,5,10-trione. The p53 has diverse mutations in almost all human tumors, stimulating their hyper-proliferation, invasion/metastasis, and thus, influencing the potency of various chemotherapeutics (i.e., platins and anti-metabolites). […] Based on our findings, one can assume a p53-dependent mode of action for 3.6 toward colon cancer cells.
as §3
The study protocol with human lymphocytes isolated from healthy adult peripheral blood was approved by BioEthics Committee of the Institute of Cell Biology of National Academy of Sciences of Ukraine (protocol No 2 from 27 January 2019), and with written consent of donor.

## COc1cccc2c1C(=O)c1c(O)c3c(c(O)c1C2=O)C[C@@](O)(C(=O)CO)C[C@@H]3O[C@H]1C[C@H](N)[C@H](O)[C@H](C)O1 [Doxorubicin, doxorubicin, reference compound]
Jurkat cells; 0.5 µM
  DNA laddering: more necrotic changes in treated Jurkat cells than apoptotic ones
[1]
  IC50: 0.73 µM
[2]; 72 h, listed as Dox
  IC50: 0.97 µM
[2]; Mus musculus, J774.2, 72 h
  IC50: 0.8 to 1 µM
[3]
  IC50: 0.07 µM
[4]
  IC50: 14 µM
[5]
  Mean Growth, %: −20.30%
  Range of Growth, %: −86.40 to 72.90%
[6]; Homo sapiens, Lymphocyte
  IC50: 0.8 to 1 µM
[6]; listed as Dox
  IC50: 1 µM

## O=C1C2=C(C(=O)c3ccccc31)C(CCc1ccccc1)c1sc(=O)[nH]c1S2 (centres unmarked) [Compound 3.6, 11-Phenethyl-3,11-dihydro-2H-benzo[6,7]thiochromeno[2,3-d]thiazole-2,5,10-trione]
Jurkat cells; 1 µM
  DNA laddering: slight laddering of DNA
Jurkat cells; 2.5 µM and 5 µM
  DNA laddering: necrotic degradation of DNA
Jurkat cells; 10 µM and 25 µM
  DNA laddering: extreme DNA fragmentation
[1]
  IC50: 27.7 µM
[2]; Mus musculus, J774.2, 72 h
  IC50: 9.57 µM
[3]
  IC50: 6.37 µM
[4]
  IC50: 7.94 µM
[5]
  Mean Growth, %: 90.58%
  Range of Growth, %: 45.25 to 130.11%
[6]; Lymphocyte
  IC50: 58.7 µM
